Legend:
[1] = in vivo screen designated APCC, rats on high fat, high cholesterol diet with 0.5% cholic acid, blood cholesterol; parameters: species or system male Sprague-Dawley rats; conditions: Rattus norvegicus, 16 h, dosed at 4 PM in CMC/Tween, sacrificed at 8 AM, high cholesterol diet overnight, read-out: APCC (% ΔTC)
From the text: In one in vivo screen designated APCC, male Sprague-Dawley rats (200 to 225 g) were randomly divided into treatment groups and dosed at 4 PM with either vehicle (CMC/Tween) or suspensions of compounds in vehicle. The normal chow diet was then replaced with a high fat, high cholesterol diet with 0.5% cholic acid. The rats consumed this diet ad libitum during the night and were sacrificed at 8 AM to obtain blood samples for cholesterol analysis using standard procedures. Statistical differences between mean cholesterol values for the same vehicle were determined using analysis of variance followed by Fisher's least significant test. The results of this trial for representative compounds of the present invention also appear in Table 1.

[2] = target: T1, acyl-CoA: cholesterol acyltransferase (ACAT) (Oryctolagus cuniculus, UniProt G1SFD9); experiment: in vitro ACAT inhibition test (IAI), radiolabeled cholesterol oleate formed from radiolabeled oleic acid in rabbit intestinal microsomes; assay type: biochemical; conditions: inhibition of acylation of cholesterol by oleic acid
T1 construct: tissue preparation containing rabbit intestinal microsomes; from tissue; host or cells: rabbit intestinal microsomes
T1 sequence (G1SFD9 1-524): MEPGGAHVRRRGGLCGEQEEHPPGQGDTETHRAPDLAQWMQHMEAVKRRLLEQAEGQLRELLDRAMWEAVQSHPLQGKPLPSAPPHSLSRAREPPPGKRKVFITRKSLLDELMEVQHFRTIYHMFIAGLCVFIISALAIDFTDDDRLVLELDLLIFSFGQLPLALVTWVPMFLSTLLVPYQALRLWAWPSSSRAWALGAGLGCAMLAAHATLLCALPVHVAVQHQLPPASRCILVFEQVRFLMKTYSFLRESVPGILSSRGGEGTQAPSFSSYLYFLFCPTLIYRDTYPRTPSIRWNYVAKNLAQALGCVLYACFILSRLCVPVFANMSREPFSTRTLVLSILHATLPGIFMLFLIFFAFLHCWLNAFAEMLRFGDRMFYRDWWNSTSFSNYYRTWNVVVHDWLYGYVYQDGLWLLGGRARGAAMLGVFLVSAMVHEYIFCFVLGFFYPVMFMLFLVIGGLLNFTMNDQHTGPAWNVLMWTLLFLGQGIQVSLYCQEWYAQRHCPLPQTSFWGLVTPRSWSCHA
Method: The ability of representative compounds of the present invention to inhibit ACAT was measured using an in vitro test more fully described in Field FJ, Salone RG. Biochemica et Biophysica 1982;712:557-70. The test assesses the ability of a test compound to inhibit the acylation of cholesterol by oleic acid by measuring the amount of radiolabeled cholesterol oleate formed from radiolabeled oleic acid in a tissue preparation containing rabbit intestinal microsomes.
The data appear in Table 1 where they are expressed as IC50 values; i.e., the concentration of test compound required to inhibit the activity of the enzyme by 50%.

Compound | change in vivo at 30 mg/kg [1] [%] | IC50 [2] [µM]
CCCCCCCCCCCCn1nnc(C(C)(C)S(=O)(=O)Nc2c(C(C)C)cccc2C(C)C)n1 [Example 9, N-[2,6-Bis(1-methylethyl)phenyl]-2-dodecyl-α,α-dimethyl-2H-tetrazole-5-methanesulfonamide] | -53 | 0.04
CCCCCCCCCCCCn1nnnc1CS(=O)(=O)Nc1c(OC)cc(OC)cc1OC [Example 8, N-(2,4,6-trimethoxyphenyl)-1-dodecyl-1H-tetrazole-5-methanesulfonamide] | -30 | 3.7
CCCCCCCCCCCCCCn1nnc(CS(=O)(=O)Nc2c(C(C)C)cccc2C(C)C)n1 [Example 3, N-[2,6-bis(1-methylethyl)phenyl]-2-tetradecyl-2H-tetrazole-5-methanesulfonamide] | -42 | 0.15
CCCCCCCCCCCCCCCCCCn1nnc(CS(=O)(=O)Nc2c(C(C)C)cccc2C(C)C)n1 [Example 5, N-[2,6-bis(1-methylethyl)phenyl]-2-octadecyl-2H-tetrazole-5-methanesulfonamide] | -31 | 7.6
CCCCCCCCCCCCCCCCn1nnc(CS(=O)(=O)Nc2c(C(C)C)cccc2C(C)C)n1 [Example 2, N-[2,6-bis(1-methylethyl)phenyl]-2-hexadecyl-2H-tetrazole-5-methanesulfonamide] | -20 | 0.6
CCCCCCCCn1nnc(CS(=O)(=O)Nc2c(C(C)C)cccc2C(C)C)n1 [Example 4, N-[2,6-bis(1-methylethyl)phenyl]-2-octyl-2H-tetrazole-5-methanesulfonamide] | -14 | 0.75
CCCCCCCCCCCCn1nnnc1CS(=O)(=O)Nc1c(C(C)C)cccc1C(C)C [Example 6, N-[2,6-bis(1-methylethyl)phenyl]-1-dodecyl-1H-tetrazole-5-methanesulfonamide] | -41 | 1.2
CCCCCCCCCCCCn1nnc(CS(=O)(=O)Nc2c(OC)cc(OC)cc2OC)n1 [Example 7, N-(2,4,6-trimethoxyphenyl)-2-dodecyl-2H-tetrazole-5-methanesulfonamide] | -60 | 0.18
CCCCCCCCCCCCn1nnc(CS(=O)(=O)Nc2c(C(C)C)cccc2C(C)C)n1 [Example 1, N-[2,6-Bis(1-methylethyl)phenyl]-2-dodecyl-2H-tetrazole-5-methanesulfonamide] | -61 | 0.222
